US11111240B2, “Sultam compound and application method thereof” (Chia Tai Tianqing Pharmaceutical Group Co., Ltd., priority 2016, dated 2021)
Like-named read-outs stand apart in the source and are kept apart here.

Experiments:
[1] = Pharmacokinetic experiments in male SD rats, single peroral administration; type: in vivo, rat; conditions: for Cmax / Tmax / AUC(0-inf) / half-life: plasma; for AUC(0-inf): read-out: AUCINF—obs
Experimental: Male SD rats were from Beijing Vital River Laboratory Animal Technology Co., Ltd., and divided into groups (3 rats per group). The rats were intragastrically administered with the test sample suspension (5 mg/kg) via a single peroral administration, respectively. The animals were fasted overnight before this study. The fasting time period was from 10 hours before administration to 4 hours after administration. Blood samples were taken at 0.25, 0.5, 1, 2, 4, 6, 8 and 24 hours after administration. After the rats were anesthetized with isoflurane using an anesthesia machine for small animal, and then 0.3 mL whole blood samples were taken from the fundus venous plexus. The blood samples were placed in heparin anticoagulant tubes, and centrifuged for 5 min at 4° C. and 4000 rpm. The plasma was transferred to centrifuge tubes, and stored at −80° C. until analysis. The samples in plasma were extracted through protein precipitation. The liquid extract was analyzed by LC-MS/MS, wherein HPLC conditions were as follows: flow rate 0.4 mL/min; mobile phase A: water/formic acid (99.9/0.1, v/v); mobile phase B: acetonitrile/formic acid (99.9/0.1, v/v); injection volume: 5 μL; column temperature: RT; autosampler temperature: RT; run time: 2.5 min.

[2] = tested on: U87/IDH1 (R132H) cells; experiment: Inhibitory activity on IDH1-mutated U87 cells (2-HG determination); type: cell-based; conditions: Homo sapiens, U-87 MG
Experimental: In the presence of 2-HG, phosphoglycerate dehydrogenase PHGDH can reduce NAD to NADPH, and the latter may be quantitatively determined by lipoamide dehydrogenase and the substrate thereof, resazurin.
U87 cell is a human glioblastoma cell line with an IDH1 mutation (R132H).
Cells was digested with trypsin, and inoculated into a 6-well plate at a density of 5×10^5, and cultured overnight in an incubator at 37° C. […] Culture medium of each sample was sucked out and centrifuged at 1000 rpm for 10 min. The supernatant was sucked out to detect the content of 2-HG therein. Additionally, cells were washed with PBS (phosphate buffered saline), digested with trypsin and collected. After the collected cells were washed with PBS for one time, the determination of intracellular 2-HG content was performed.
The method for determining the intracellular 2-HG was as follows: cells were re-suspended with 300 μL reaction buffer (40 mM Tris-HCl, pH 8.5; 150 mM NaCl) and disrupted by ultrasonication. They were centrifuged for 10 min at 12,000 rpm and 4° C. to remove insoluble substances. 25 μL supernatant was sucked out to determine the protein concentration by a BCA kit. […]
The measured fluorescence values were compared after being corrected with the protein concentrations of the corresponding samples.

[3] = molecular target: IDH1 (R132C) (Homo sapiens (Human), UniProt O75874, R132C); experiment: Enzyme assay, IDH1m inhibition (NADPH decrease, diaphorase/resazurin); type: biochemical; conditions: 40 nM enzyme, 16 h pre-incubation at 23° C.
Description: (§1) Resazurin is a traditional redox dye, and after a redox reaction, it can be reduced from a blue resazurin without fluorescence to a pink fluorescent substance, resorufin, which can be measured and quantified with relative fluorescence unit (RFU) of fluorophotometer (Ex=530-570 nm, Em=590-620 nm). At present, resazurin is widely used for determining the viability of bacteria, cells, etc. and the enzyme activity detection of oxidoreductase. We detected the decrease of cofactor NADPH to determine the inhibitory activity of a compound against IDH1m and detected the generation of cofactor NADPH to determine the inhibitory activity of a compound against IDH WT. The compound was pre-incubated with IDH1m and NADPH, and then the reaction was initiated by adding α-KG and performed for certain time under a linear condition. Then, diaphorase (lipoamide dehydrogenase) and the corresponding substrate resazurin were added thereto for detection. Lipoamide dehydrogenase terminated the IDH1m reaction by decreasing the available cofactor NADPH, which oxidized NADPH to NADP, and reduced resazurin to high fluorescent resorufin. The amount of the remaining cofactor NADPH after a specific reaction time was quantified via an easily detectable fluorophore.
(§2) The specific operation was as follows: 2.5 μl of the compound diluted in a 3-fold gradient was added to a 384-well plate, followed by adding 5 μl of the reaction buffer (20 mM Tris-HCl, pH 7.5; 150 mM NaCl; 10 mM MgCl2; 0.4 mg/mL BSA (Bovine Serum Albumin) and 2 mM DTT (dithiothreitol)) containing 40 nM IDH1 (R132H/R132C) and 20 μM NADPH. Then, the above test mixture was incubated at 23° C. for 16 hours, and then 2.5 μl of the reaction buffer containing 4 mM α-KG was added to initiate the reaction. After they were incubated for 60 minutes at room temperature, 5 μl of the termination mixture (0.4 U/ml diaphorase and 20 μM resazurin) formulated with the reaction buffer was added to convert resazurin to resorufin, so as to measure the amount of the remaining NADPH. After incubating at 23° C. for 10 minutes, fluorescence values were determined through Flexstation 3 at Ex535/Em595. The enzyme activity of each compound was respectively determined at 12 concentrations, and the data were calculated using the software GraFit6.0 (Erithacus Software) to obtain the IC50 value of each compound.

[4] = molecular target: IDH1 (R132H) (Homo sapiens (Human), UniProt O75874, R132H); experiment: as above; type: biochemical; conditions: 40 nM enzyme, 16 h pre-incubation at 23° C.
Description: as §1, §2

[5] = rat, male SD rats, oral 5 mg/kg, 0.5% MC, 0.2% Tween80

IDH1 (R132H), sequence (O75874 whole entry R132H): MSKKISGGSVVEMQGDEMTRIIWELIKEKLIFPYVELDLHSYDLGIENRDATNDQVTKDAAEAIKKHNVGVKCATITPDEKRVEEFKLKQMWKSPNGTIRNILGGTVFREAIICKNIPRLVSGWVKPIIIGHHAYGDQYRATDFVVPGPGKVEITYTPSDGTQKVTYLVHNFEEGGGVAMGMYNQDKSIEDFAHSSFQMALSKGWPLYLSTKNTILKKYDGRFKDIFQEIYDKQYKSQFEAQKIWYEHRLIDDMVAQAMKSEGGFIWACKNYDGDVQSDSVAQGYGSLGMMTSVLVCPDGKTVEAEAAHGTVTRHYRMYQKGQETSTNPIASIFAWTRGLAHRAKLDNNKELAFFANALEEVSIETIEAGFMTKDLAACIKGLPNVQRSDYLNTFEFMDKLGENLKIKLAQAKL
IDH1 (R132C), sequence (O75874 whole entry R132C): as the sequence (O75874 whole entry R132H) above, with H132C counted along it

Cmax [1, 5]	Tmax [1, 5]	AUC(0-inf) [1, 5]	IC50 [2]	IC50 [3]	IC50 [4]	Compound	also measured
719 ng/mL	0.67 h	6320 ng·h/mL	46 nM			N#Cc1ccnc(N2C(=O)CC[C@H]2C(=O)N(c2cncc(F)c2)[C@H](C(=O)NC2CC(F)(F)C2)c2ccccc2Cl)c1 [AG-120, ivosidenib, reference compound]	half-life ([1]; rat, male SD rats, oral 5 mg/kg, 0.5% MC, 0.2% Tween80, read-out: T1/2 (converted)): 3.28 h
			6.7 nM	< 20 nM	< 20 nM	N#Cc1ccnc(N2[C@H](C(=O)N(c3cncc(F)c3)[C@H](C(=O)NC3CC(F)(F)C3)c3ccccc3Cl)CCS2(=O)=O)c1 [Example 2, (S)—N—((S)-1-(2-chlorophenyl)-2-((3,3-difluorocyclobutyl)amino)-2-oxoethyl)-2-(4-cyanopyridin-2-yl)-N-(5-fluoropyridin-3-yl)-isothiazolidine-3-carboxamide 1,1-dioxide]	
556 ng/mL	4 h	10600 ng·h/mL		< 20 nM	< 20 nM	N#Cc1ccnc(N2[C@H](C(=O)N(c3cccc(F)c3)[C@H](C(=O)NC3CC(F)(F)C3)c3ccccc3Cl)CCS2(=O)=O)c1 [Example 12, (S)—N—((S)-1-(2-chlorophenyl)-2-((3,3-difluorocyclobutyl)amino)-2-oxoethyl)-2-(4-cyanopyridin-2-yl)-N-(3-fluorophenyl)-isothiazolidine-3-carboxamide 1,1-dioxide]	T1/2 ([1]; male SD rats, oral 5 mg/kg, 0.5% MC, 0.2% Tween80): 10.7 h; half-life ([1]; male, SD, 5 mg/kg, rat, oral, read-out: half-life (converted)): 10.7 h; drug exposure in plasma compared with AG-120 ([1]; rat, same oral dose): far higher than that of AG-120
					20 nM	CN1C[C@@H](C(=O)N(c2cccc(F)c2)C(C(=O)NC2CC(F)(F)C2)c2ccccc2Cl)N(c2cc(C#N)ccn2)S1(=O)=O (stereo partly drawn) [Example 25, (3S)—N-(1-(2-chlorophenyl)-2-((3,3-difluorocyclobutyl)amino)-2-oxoethyl)-2-(4-cyanopyridin-2-yl)-N-(3-fluorophenyl)-5-methyl-1,2,5-thiadiazolidine-3-carboxamide 1,1-dioxide]	
					< 20 nM	N#Cc1ccnc(N2[C@H](C(=O)N(c3cccc(S(N)(=O)=O)c3)C(C(=O)NC3CCCCC3)c3ccccc3Cl)CCS2(=O)=O)c1 (stereo partly drawn) [Example 26, (3S)—N-(1-(2-chlorophenyl)-2-(cyclohexylamino)-2-oxoethyl)-2-(4-cyanopyridin-2-yl)-N-(3-aminosulfonylphenyl)-isothiazolidine-3-carboxamide 1,1-dioxide]	
					20 nM	N#Cc1ccnc(N2[C@H](C(=O)N(c3cc(F)c[n+]([O-])c3)[C@H](C(=O)NC3CC(F)(F)C3)c3ccccc3Cl)CCS2(=O)=O)c1 [Example 27, 3-((S)—N—((S)-1-(2-chlorophenyl)-2-((3,3-difluorocyclobutyl)amino)-2-oxoethyl)-2-(4-cyanopyridin-2-yl)-1,1-dioxoisothiazolidine-3-carboxamido)-5-fluoropyridine-1-oxide]	
